Among the data in patent publication US5436254A, “Carbostyril derivatives” (Otsuka Pharmaceutical Company, Ltd., priority 1989, dated 1995) are IC50 values, retold here.

Molecules are shown by their SMILES.

Chain of V1 receptor (P30560 whole entry): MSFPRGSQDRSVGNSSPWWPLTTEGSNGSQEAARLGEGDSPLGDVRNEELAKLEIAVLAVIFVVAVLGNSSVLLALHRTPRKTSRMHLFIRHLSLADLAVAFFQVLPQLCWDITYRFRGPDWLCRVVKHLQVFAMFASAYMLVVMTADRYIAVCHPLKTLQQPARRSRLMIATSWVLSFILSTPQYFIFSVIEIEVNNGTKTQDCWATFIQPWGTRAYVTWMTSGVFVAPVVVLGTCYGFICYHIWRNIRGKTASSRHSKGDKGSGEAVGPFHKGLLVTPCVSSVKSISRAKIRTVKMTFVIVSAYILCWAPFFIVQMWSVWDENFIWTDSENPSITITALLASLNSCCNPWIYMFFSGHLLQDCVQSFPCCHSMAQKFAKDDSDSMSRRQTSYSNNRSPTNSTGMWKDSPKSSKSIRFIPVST

The first experiment has as its target V1 receptor (Rattus norvegicus, UniProt P30560). Nature of the experiment: biochemical. The experiment is classed as binding.
Conditions: not given
As usually defined, the IC50 is the concentration at which inhibition is half-maximal. Consider `COC(=O)[C@H](CCCCN)NC(=O)CCCCCOc1ccc(C(=O)N2CCC(N3C(=O)CCc4ccccc43)CC2)cc1` [Example 166, 1-{1-[4-{5-[5-Amino-1-(S)-methoxycarbonyl]pentylaminocarbonylpentyloxy}benzoyl]-4-piperidinyl}-3,4-dihydrocarbostyril], for which half-maximal inhibition (IC50) was put at 44 nM.

In turn, `CC(C)CCNCCCOc1ccc(C(=O)N2CCC(N3C(=O)CCc4ccccc43)CC2)cc1` [Example 167, 1-{1-[4-(3-Isopentylaminopropoxy)benzoyl]-4-piperidinyl}-3,4-dihydrocarbostyril] showed an IC50 of 280 nM.

Turning to `CCOC(=O)NCCCOc1ccc(C(=O)N2CCC(N3C(=O)CCc4ccccc43)CC2)cc1` [Example 168, 1-{1-[4-(3-Ethoxycarbonylaminopropoxy)benzoyl]-4-piperidinyl}-3,4-dihydrocarbostyril], the IC50 turned out to be 190 nM.

As for `O=C(c1ccc(OCCCNS(=O)(=O)c2ccccc2)cc1)N1CCC(N2C(=O)CCc3ccccc32)CC1` [Example 169, 1-{1-[4-(3-Phenylsulfonylaminopropoxy)benzoyl]-4-piperidinyl}-3,4-dihydrocarbostyril], inhibition was half-maximal at 170 nM (IC50).

As to `O=C(c1ccc(OCCCCC(O)CNCc2ccccc2)cc1)N1CCC(N2C(=O)CCc3ccccc32)CC1` (centres unmarked) [Example 170, 1-{1-[4-(5-Hydroxy-6-benzylaminohexyloxy)benzoyl]-4-piperidinyl}-3,4-dihydrocarbostyril], the IC50 is 39 nM.

The compound `NCC(O)CCCCOc1ccc(C(=O)N2CCC(N3C(=O)CCc4ccccc43)CC2)cc1` (centres unmarked) [Example 171, 1-{1-[4-(5-Hydroxy-6-aminohexyloxy)benzoyl]-4-piperidinyl}-3,4-dihydrocarbostyril] gave an IC50 of 240 nM.

As to `O=C(c1ccc(OCCCCC(O)CN2CCN(Cc3ccccc3)CC2)cc1)N1CCC(N2C(=O)CCc3ccccc32)CC1` (centres unmarked) [Example 172, 1-(1-[4-(5-Hydroxy-6-(4-benzyl-1-piperazinyl)hexyloxy]benzoyl]-4-piperidinyl)-3,4-dihydrocarbostyril.dioxalate], the IC50 came out at 43 nM.

`O=C(c1ccc(OCCCCC(O)CN2CCNCC2)cc1)N1CCC(N2C(=O)CCc3ccccc32)CC1` (centres unmarked) [Example 173, 1-{1-[4-(5-Hydroxy-6-(1-piperazinyl)hexyloxy]benzoyl]-4-piperidinyl}-3,4-dihydrocarbostyril.dioxalate] yielded an IC50 of 39 nM.

`Cc1ccc(S(=O)(=O)NCCCOc2ccc(C(=O)N3CCC(N4C(=O)CCc5ccccc54)CC3)cc2)cc1` [Example 174, 1-{1-[4-(3-p-Toluenesulfonylaminopropoxy)benzoyl]-4-piperidinyl}-3,4-dihydrocarbostyril] registered an IC50 of 490 nM.

Regarding `CC(=O)NCC(CCCCOc1ccc(C(=O)N2CCC(N3C(=O)CCc4ccccc43)CC2)cc1)OC(C)=O` (centres unmarked) [Example 176, 1-{1-[4-(5-Acetoxy-6-acetylaminohexyloxy)benzoyl]-4-piperidinyl}-3,4-dihydrocarbostyril], the IC50 was 130 nM.

As to `CC(=O)NCC(O)CCCCOc1ccc(C(=O)N2CCC(N3C(=O)CCc4ccccc43)CC2)cc1` (centres unmarked) [Example 177, 1-{1-[4-(5-Hydroxy-6-acetylaminohexyloxy)-benzoyl]-4-piperidinyl}-3,4-dihydrocarbostyril], the IC50 is 130 nM.

For the compound `CN1CCN(CC(O)CCCCOc2ccc(C(=O)N3CCC(N4C(=O)CCc5ccccc54)CC3)cc2)CC1` (centres unmarked) [Example 178, 1-{1-[4-(5-Hydroxy-6-(4-methyl-1-piperazinyl)hexyloxy]benzoyl]-4-piperidinyl}-3,4-dihydrocarbostyril], half-maximal inhibition (IC50) was put at 45 nM.

`CN(C)CCCCc1ccc(C(=O)N2CCC(N3C(=O)CCc4ccccc43)CC2)cc1` [Example 180, 1-{1-[4-(4-Dimethylaminobutyl)benzoyl]-4-piperidinyl}-3,4-dihydrocarbostyril] yielded an IC50 of 400 nM.

With `CC(=O)NCC(=O)NCCCOc1ccc(C(=O)N2CCC(N3C(=O)CCc4ccccc43)CC2)cc1` [Example 181, 1-{1-[4-(3-Acetylaminoacetylaminopropoxy)benzoyl]-4-piperidinyl}-3,4-dihydrocarbostyril], inhibition was half-maximal at 230 nM (IC50).

`CCCC(NC(C)=O)C(=O)NCCCOc1ccc(C(=O)N2CCC(N3C(=O)CCc4ccccc43)CC2)cc1` (centres unmarked) [Example 182, 1-{1-[4-(3-[2-(Acetylamino)valerylamino]propoxy)benzoyl]-4-piperidinyl}-3,4-dihydrocarbostyril] registered an IC50 of 120 nM.

Turning to `CCN(CC)CC(O)CCCCCCOc1ccc(C(=O)N2CCC(N3C(=O)CCc4ccccc43)CC2)cc1` (centres unmarked) [Example 184, 1-{1-[4-(7-Hydroxy-8-diethylaminooctyloxy)benzoyl]-4-piperidinyl}-3,4-dihydrocarbostyril], the IC50 turned out to be 39 nM.

`CCN(CC)CC(O)CCCCOc1ccc(C(=O)N2CCC(N3C(=O)CCc4ccc(F)cc43)CC2)c(OC)c1` (centres unmarked) [Example 185, 7-Fluoro-1-{1-[4-(5-Hydroxy-6-diethylaminohexyloxy)-2-methoxybenzoyl]-4-piperidinyl}-3,4-dihydrocarbostyril] yielded an IC50 of 10 nM.

In turn, `O=C(c1ccc(OCCCC(O)CN2CCCC2)cc1)N1CCC(N2C(=O)CCc3ccccc32)CC1` (centres unmarked) [Example 186, 1-{1-[4-(4-Hydroxy-5-(1-pyrrolidinyl)pentyloxy)benzoyl]-4-piperidinyl}-3,4-dihydrocarbostyril] yielded an IC50 of 63 nM.

As to `CN(C)CC(O)CCCCCCOc1ccc(C(=O)N2CCC(N3C(=O)CCc4ccccc43)CC2)cc1` (centres unmarked) [Example 187, 1-{1-[4-(7-Hydroxy-8-dimethylaminooctyloxy)benzoyl]-4-piperidinyl}-3,4-dihydrocarbostyril], the IC50 came to 40 nM.

Turning to `O=C(c1ccc(OCCCC(O)CN2CCCCC2)cc1)N1CCC(N2C(=O)CCc3ccccc32)CC1` (centres unmarked) [Example 188], the midpoint of inhibition, the IC50, lay at 68 nM.

`O=C(c1ccc(OCCCC(O)CN2CCOCC2)cc1)N1CCC(N2C(=O)CCc3ccccc32)CC1` (centres unmarked) [Example 189, 1-{1-[4-(4-Hydroxy-5-morpholinopentyloxy)benzoyl]-4-piperidinyl}-3,4-dihydrocarbostyril] displayed an IC50 of 130 nM.

`CCN(CC)CC(O)COCCCCCOc1ccc(C(=O)N2CCC(N3C(=O)CCc4ccccc43)CC2)cc1` (centres unmarked) [Example 190, 1-{1-[4-(5-(2-Hydroxy-3-diethylaminopropoxy)pentyloxy)benzoyl]-4-piperidinyl}-3,4-dihydrocarbostyril] gave an IC50 of 33 nM.

For `CN(C)CC(O)COCCCCCOc1ccc(C(=O)N2CCC(N3C(=O)CCc4ccccc43)CC2)cc1` (centres unmarked) [Example 191, 1-{1-[4-(5-(2-Hydroxy-3-dimethylaminopropoxy)pentyloxy)benzoyl]-4-piperidinyl}-3,4-dihydrocarbostyril], half-maximal inhibition (IC50) was put at 34 nM.

Regarding `CCN(CC)CC(O)COCCCOc1ccc(C(=O)N2CCC(N3C(=O)CCc4ccccc43)CC2)cc1` (centres unmarked) [Example 192, 1-{1-[4-(3-(2-Hydroxy-3-diethylaminopropoxy)propoxy)benzoyl]-4-piperidinyl}-3,4-dihydrocarbostyril], the half-maximal inhibitory concentration (IC50) came to 61 nM.

Take `Nc1ccc(C(=O)NCCCOc2ccc(C(=O)N3CCC(N4C(=O)CCc5ccccc54)CC3)cc2)cc1` [Example 193, 1-{1-[4-(3-(4-Aminobenzoylamino)propoxy)benzoyl]-4-piperidinyl}-3,4-dihydrocarbostyril]: the IC50 was 120 nM.

Consider `O=C(c1ccc(OCCCC[S+]([O-])c2nc3ccccc3[nH]2)cc1)N1CCC(N2C(=O)CCc3ccccc32)CC1` (centres unmarked) [Example 194, 1-{1-[4-(4-(Benzimidazol-2-yl)sulfinylbutoxy)benzoyl]-4-piperidinyl}-3,4-dihydrocarbostyril], for which the IC50 is 350 nM.

In the case of `CC(=O)N[C@@H](CCC(N)=O)C(=O)NCCCOc1ccc(C(=O)N2CCC(N3C(=O)CCc4ccccc43)CC2)cc1` [Example 195, 1-(1-[4-(3-(α-N-Acetyl-(L)-glutaminyl)aminopropoxy)benzoyl]-4-piperidinyl}-3,4-dihydrocarbostyril], the IC50 was determined as 190 nM.

`CC(=O)Nc1ccc(C(=O)NCCCOc2ccc(C(=O)N3CCC(N4C(=O)CCc5ccccc54)CC3)cc2)cc1` [Example 196, 1-(1-[4-(3-(4-Acetylaminobenzoyl)aminopropoxy)benzoyl]-4-piperidinyl}-3,4-dihydrocarbostyril] came in with an IC50 of 170 nM.

`CN(C)CCCNC(=O)CCCCCOc1ccc(C(=O)N2CCC(N3C(=O)CCc4ccccc43)CC2)cc1` [Example 197, 1-(1-[4-(5-(3-Dimethylaminopropyl)aminocarbonylpentyloxy)benzoyl]-4-piperidinyl}-3,4-dihydrocarbostyril] yielded an IC50 of 35 nM.

`CCNC(=O)NCCCOc1ccc(C(=O)N2CCC(N3C(=O)CCc4ccccc43)CC2)cc1` [Example 198, 1-{1-[4-(3-Ethylaminocarbonylaminopropoxy)benzoyl]-4-piperidinyl}-3,4-dihydrocarbostyril]: inhibition was half-maximal at 320 nM (IC50).

With `CN(C)CCNC(=O)CCCCCOc1ccc(C(=O)N2CCC(N3C(=O)CCc4ccccc43)CC2)cc1` [Example 199, 1-[1-[4-(5-(2-Dimethylaminoethyl)aminocarbonylpentyloxy)benzoyl]-4-piperidinyl}-3,4-dihydrocarbostyril], the IC50 came out at 55 nM.

In turn, `O=C(CCCCCOc1ccc(C(=O)N2CCC(N3C(=O)CCc4ccccc43)CC2)cc1)NC1CCN(Cc2ccccc2)CC1` [Example 200, 1-{1-[4-(5-(1-Benzyl-4-piperidinyl)aminocarbonylpentyloxy)benzoyl]-4-piperidinyl}-3,4-dihydrocarbostyril] registered an IC50 of 34 nM.

`CCN(CC)CC(O)CCCCOc1ccc(C(=O)N2CCC(N3C(=O)CCc4c(F)cc(F)cc43)CC2)c(OC)c1` (centres unmarked) [Example 201, 5,7-Difluoro-1-(1-[2-methoxy-4-(5-hydroxy-6-diethylaminohexyloxy)benzoyl]-4-piperidinyl}-3,4-dihydrocarbostyril] came in with a 50% inhibitory concentration (IC50) of 8 nM.

`O=C(c1ccc(OCCCCC(O)CN2CCCC2)cc1)N1CCC(N2C(=O)CCc3ccccc32)CC1` (centres unmarked) [Example 202, 1-{1-[4-(5-Hydroxy-6-(1-pyrrolidinyl)hexyloxy)benzoyl]-4-piperidinyl}-3,4-dihydrocarbostyril] yielded an IC50 of 27 nM.

The same experiment, now with this note: read-out: IC50.
On to `CCOc1ccc(C(=O)N2CCC(n3c(=O)ccc4c(F)cc(F)cc43)CC2)c(OC)c1` [Example 175, 5,7-Difluoro-1-[1-(2-Methoxy-4-ethoxybenzoyl)-4-piperidinyl]carbostyril], for which the IC50 worked out at 320 nM.
